According to US20230203059A1, “MACROCYCLIC JAK INHIBITOR AND USES THEREOF” (Biopolar Hongye (Guangdong) Pharmaceutical Co. Ltd., priority 2020, published 2023):

What was measured:
Type in all cases: biochemical
[1] = biological target: TYK2 (Homo sapiens, UniProt P29597); experiment: JAK kinase activity, homogeneous time-resolved fluorescence (TYK2 reaction system); details: ATP 2 μM, TYK2 protein 0.2 ng/μL; read-out: TYK 2 activity
In short: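 Activity read as the 665 nm/615 nm ratio after adding EDTA-containing detection mix with anti-phospho-substrate antibody and XL-615. Beforehand, 0.2 ng/μL TYK2, 2 μM ATP, substrate and compound reacted 1 h in pH 7.0 Hepes buffer with MgCl2 and DTT. IC50 fitted with Hill-slope equation.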

[2] = biological target: JAK2 (Homo sapiens, UniProt O60674); experiment: JAK kinase activity, homogeneous time-resolved fluorescence (JAK2 reaction system); details: ATP 2 μM, JAK2 protein 0.01 ng/μL
In short: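 IC50 derived by Hill-equation fit of the 665/615 nm time-resolved fluorescence ratio after EDTA-containing detection mix with anti-phosphosubstrate antibody. Preceding 1 h reaction contained 2 μM ATP, 0.01 ng/μL JAK2, substrate, 50 mM Hepes pH 7.0, 5 mM MgCl2, 1 mM DTT.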

[3] = biological target: T1, JAK3 (Homo sapiens, UniProt P52333); experiment: JAK kinase activity, homogeneous time-resolved fluorescence (JAK3 reaction system); details: ATP 2 μM, JAK3 protein 0.04 ng/μL; read-out: JAK 3 activity
T1 sequence (P52333 1-1124): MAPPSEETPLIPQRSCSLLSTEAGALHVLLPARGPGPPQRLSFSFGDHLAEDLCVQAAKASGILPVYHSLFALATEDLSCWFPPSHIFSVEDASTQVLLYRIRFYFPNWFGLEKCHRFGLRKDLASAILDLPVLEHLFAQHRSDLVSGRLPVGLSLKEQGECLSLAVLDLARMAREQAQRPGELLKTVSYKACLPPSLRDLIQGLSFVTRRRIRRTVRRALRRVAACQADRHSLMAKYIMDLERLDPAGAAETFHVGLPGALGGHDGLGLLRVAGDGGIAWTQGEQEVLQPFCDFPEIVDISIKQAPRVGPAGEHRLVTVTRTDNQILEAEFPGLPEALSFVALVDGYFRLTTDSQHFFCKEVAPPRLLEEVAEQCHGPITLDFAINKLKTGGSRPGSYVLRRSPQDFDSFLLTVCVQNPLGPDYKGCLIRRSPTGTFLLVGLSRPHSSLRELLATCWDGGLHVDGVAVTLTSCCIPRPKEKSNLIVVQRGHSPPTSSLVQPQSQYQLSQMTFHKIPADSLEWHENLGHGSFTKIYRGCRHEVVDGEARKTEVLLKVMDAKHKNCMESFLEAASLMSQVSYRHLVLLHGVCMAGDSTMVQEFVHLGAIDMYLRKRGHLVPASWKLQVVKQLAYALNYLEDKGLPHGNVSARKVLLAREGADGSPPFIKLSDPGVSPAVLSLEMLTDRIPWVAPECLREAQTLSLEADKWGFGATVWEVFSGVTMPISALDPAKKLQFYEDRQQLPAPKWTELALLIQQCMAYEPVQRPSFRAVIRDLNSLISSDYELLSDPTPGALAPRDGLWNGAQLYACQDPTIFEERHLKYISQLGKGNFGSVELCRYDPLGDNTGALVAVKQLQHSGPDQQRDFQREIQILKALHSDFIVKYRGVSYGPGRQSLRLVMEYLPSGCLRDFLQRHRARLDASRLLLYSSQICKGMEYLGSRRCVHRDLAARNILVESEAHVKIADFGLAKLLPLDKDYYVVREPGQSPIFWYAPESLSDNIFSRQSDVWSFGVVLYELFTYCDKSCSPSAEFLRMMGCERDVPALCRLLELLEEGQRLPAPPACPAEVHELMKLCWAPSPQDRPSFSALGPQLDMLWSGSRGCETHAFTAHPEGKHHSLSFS

[4] = biological target: JAK1 (Homo sapiens, UniProt P23458); experiment: JAK kinase activity, homogeneous time-resolved fluorescence (JAK1 reaction system); details: ATP 2 μM, JAK1 protein 0.2 ng/μL; read-out: JAK 1 activity
In short: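 HTRF assay: JAK1 (0.2 ng/μL) with 2 μM ATP and substrate in 50 mM Hepes pH 7.0, 5 mM MgCl2, 1 mM DTT, 1 h. Phospho-substrate antibody/XL-615 detection with EDTA; 665/615 nm ratio, excitation 320 nm. IC50 from Hill-type fit against no-enzyme and no-compound controls.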

JAK2, sequence (O60674 whole entry): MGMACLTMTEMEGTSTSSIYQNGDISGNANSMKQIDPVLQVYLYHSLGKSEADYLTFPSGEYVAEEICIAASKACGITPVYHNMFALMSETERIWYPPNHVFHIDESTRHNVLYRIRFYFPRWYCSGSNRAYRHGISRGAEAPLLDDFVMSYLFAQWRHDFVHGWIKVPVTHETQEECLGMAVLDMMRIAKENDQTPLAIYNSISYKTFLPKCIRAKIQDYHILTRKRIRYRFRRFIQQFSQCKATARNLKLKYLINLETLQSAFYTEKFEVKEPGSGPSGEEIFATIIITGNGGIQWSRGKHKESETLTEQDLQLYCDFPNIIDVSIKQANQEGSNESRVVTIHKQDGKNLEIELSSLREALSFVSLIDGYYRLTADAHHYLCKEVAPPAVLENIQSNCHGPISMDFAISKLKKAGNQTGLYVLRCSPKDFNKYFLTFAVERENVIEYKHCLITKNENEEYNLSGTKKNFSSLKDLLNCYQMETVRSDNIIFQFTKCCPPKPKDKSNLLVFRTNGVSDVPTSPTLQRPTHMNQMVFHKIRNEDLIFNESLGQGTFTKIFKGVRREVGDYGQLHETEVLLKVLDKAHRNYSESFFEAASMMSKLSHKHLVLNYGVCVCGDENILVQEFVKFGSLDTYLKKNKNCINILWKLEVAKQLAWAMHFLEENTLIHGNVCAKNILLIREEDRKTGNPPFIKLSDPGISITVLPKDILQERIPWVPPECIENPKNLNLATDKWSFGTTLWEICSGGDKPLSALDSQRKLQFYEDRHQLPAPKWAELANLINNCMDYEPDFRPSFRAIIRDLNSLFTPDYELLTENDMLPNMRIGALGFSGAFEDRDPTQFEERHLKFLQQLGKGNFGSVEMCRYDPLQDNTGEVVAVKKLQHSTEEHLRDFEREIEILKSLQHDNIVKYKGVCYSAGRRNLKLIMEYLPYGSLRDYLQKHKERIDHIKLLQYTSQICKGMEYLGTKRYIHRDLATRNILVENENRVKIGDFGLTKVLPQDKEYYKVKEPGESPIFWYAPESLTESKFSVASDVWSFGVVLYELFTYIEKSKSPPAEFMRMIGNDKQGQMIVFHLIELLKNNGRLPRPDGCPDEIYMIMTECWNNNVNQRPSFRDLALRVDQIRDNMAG
TYK2, sequence (P29597 whole entry): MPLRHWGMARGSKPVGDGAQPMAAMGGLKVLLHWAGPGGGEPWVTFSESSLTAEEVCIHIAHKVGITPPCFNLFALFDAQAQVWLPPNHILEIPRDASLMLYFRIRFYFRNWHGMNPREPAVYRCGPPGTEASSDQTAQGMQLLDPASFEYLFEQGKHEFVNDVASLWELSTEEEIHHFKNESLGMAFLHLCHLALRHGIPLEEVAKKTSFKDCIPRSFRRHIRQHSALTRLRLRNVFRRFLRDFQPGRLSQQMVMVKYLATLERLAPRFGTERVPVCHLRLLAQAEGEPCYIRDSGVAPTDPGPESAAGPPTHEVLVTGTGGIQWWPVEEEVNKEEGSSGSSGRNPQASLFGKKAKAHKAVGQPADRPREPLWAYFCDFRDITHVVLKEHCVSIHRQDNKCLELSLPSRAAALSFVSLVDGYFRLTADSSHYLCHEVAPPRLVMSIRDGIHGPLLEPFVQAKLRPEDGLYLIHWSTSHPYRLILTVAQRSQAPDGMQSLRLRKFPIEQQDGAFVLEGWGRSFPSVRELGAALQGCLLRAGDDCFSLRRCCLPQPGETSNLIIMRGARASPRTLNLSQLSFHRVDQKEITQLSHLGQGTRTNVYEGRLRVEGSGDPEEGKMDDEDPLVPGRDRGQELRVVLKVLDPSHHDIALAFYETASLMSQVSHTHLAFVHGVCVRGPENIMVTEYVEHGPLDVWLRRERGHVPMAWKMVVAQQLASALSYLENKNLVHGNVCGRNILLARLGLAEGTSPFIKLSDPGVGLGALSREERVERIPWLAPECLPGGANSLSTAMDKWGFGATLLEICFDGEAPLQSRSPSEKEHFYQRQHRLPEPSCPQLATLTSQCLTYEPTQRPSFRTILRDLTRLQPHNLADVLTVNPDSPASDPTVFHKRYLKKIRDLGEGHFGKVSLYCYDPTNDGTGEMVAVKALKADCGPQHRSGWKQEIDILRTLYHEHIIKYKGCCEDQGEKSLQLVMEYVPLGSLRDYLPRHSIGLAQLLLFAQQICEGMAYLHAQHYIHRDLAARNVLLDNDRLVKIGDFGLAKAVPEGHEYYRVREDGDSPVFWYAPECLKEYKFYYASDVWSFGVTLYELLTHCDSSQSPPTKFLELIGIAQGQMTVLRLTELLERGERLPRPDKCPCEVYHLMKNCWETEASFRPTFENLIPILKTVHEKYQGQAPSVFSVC
JAK1, sequence (P23458 whole entry): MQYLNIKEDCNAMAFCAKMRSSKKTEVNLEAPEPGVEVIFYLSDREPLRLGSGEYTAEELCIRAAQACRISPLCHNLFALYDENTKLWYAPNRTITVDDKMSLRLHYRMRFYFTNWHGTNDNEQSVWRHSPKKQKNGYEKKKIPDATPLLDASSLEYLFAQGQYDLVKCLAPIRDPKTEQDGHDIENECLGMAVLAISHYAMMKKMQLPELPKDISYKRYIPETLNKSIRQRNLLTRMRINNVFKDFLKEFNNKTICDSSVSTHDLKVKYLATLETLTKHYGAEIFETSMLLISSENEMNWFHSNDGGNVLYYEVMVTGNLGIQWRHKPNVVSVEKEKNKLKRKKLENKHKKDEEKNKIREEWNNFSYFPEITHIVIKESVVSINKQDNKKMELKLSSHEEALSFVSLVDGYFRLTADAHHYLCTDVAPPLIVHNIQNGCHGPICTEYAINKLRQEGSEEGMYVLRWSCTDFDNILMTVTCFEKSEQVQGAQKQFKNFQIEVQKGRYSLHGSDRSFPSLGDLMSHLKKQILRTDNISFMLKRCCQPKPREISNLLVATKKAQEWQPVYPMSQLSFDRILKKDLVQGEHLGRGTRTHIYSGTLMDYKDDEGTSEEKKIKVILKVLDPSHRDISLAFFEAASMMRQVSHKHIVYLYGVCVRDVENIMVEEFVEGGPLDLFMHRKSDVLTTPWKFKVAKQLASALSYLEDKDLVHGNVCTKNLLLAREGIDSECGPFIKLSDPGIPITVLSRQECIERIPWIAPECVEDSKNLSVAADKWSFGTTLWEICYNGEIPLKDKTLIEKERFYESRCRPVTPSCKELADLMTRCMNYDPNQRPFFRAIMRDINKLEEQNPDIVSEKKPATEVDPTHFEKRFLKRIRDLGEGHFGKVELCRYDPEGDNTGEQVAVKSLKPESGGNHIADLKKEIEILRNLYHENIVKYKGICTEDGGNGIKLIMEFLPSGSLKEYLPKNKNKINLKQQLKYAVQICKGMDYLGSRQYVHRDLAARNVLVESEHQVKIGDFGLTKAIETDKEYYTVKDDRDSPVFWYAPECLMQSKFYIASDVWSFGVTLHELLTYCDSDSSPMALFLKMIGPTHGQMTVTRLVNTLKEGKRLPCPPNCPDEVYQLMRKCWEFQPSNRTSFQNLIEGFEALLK

IC50 [1] | IC50 [2] | IC50 [3] | IC50 [4] | Structure (SMILES)
> 10000 nM | 101 to 1000 nM | 11 to 100 nM | 1000 to 10000 nM | Nc1cc2ccc1-c1ccnc(n1)Nc1ccc(Oc3ccc(F)cc3)c(c1)COCCCCNC2=O [Example 107, 1^2-amino-4^4-(4-fluorophenoxy)-6-oxa-3,11-diaza-2(4,2)-pyrimidina-1(1,4),4(1,3)-dibenzenacyclo-dodecaphan-12-one]
> 10000 nM | 1000 to 10000 nM | 101 to 1000 nM | 1000 to 10000 nM | O=C1NCCCCOCc2cc(ccc2OCC(F)(F)F)Nc2nccc(n2)-c2ccc1cc2[N+](=O)[O-] [Example 108, 1^2-nitro-4^4-(2,2,2-trifluoroethoxy)-6-oxa-3,11-diaza-2(4,2)-pyrimidina-1(1,4),4(1,3)-dibenzenacyclo-dodecaphan-12-one]
1000 to 10000 nM | 101 to 1000 nM | 11 to 100 nM | 1000 to 10000 nM | Nc1cc2ccc1-c1ccnc(n1)Nc1ccc(OCC(F)(F)F)c(c1)COCCCCNC2=O [Example 109, 1^2-amino-4^4-(2,2,2-trifluoroethoxy)-6-oxa-3,11-diaza-2(4,2)-pyrimidi-na-1(1,4),4(1,3)-dibenzenacyclo-dodecaphan-12-one]
1000 to 10000 nM | 101 to 1000 nM | < 10 nM | 1000 to 10000 nM | Nc1cc2ccc1-c1ccnc(n1)Nc1ccc(Oc3cccnc3)c(c1)COCCCCNC2=O [Example 110, 1^2-amino-4^4-(pyridin-3-oxy)-6-oxa-3,11-diaza-2(4,2)-pyrimidina-1(1,4),4(1,3)-dibenzenacyclodo-decaphan-12-one]
> 10000 nM | 1000 to 10000 nM | 101 to 1000 nM | 1000 to 10000 nM | O=C1NCCCCOCc2cc(ccc2OCC2CC2)Nc2nccc(n2)-c2ccc1cc2[N+](=O)[O-] [Example 111, 4^4-(cyclopropylmethoxy)-1^2-nitro-6-oxa-3,11-diaza-2(4,2)-pyrimidina-1(1,4),4(1,3)-dibenzenacyclo-dodecaphan-12-one]
> 10000 nM | 101 to 1000 nM | < 10 nM | 1000 to 10000 nM | Nc1cc2ccc1-c1ccnc(n1)Nc1ccc(OCC3CC3)c(c1)COCCCCNC2=O [Example 112, 1^2-amino-4^4-(cyclopropylmethoxy)-6-oxa-3,11-diaza-2(4,2)-pyrimidi-na-1(1,4),4(1,3)-dibenzenacyclo-dodecaphan-12-one]
> 10000 nM | 1000 to 10000 nM | 101 to 1000 nM | 1000 to 10000 nM | O=C1NCCCCOCc2cc(ccc2OC2CCCOC2)Nc2nccc(n2)-c2ccc1cc2[N+](=O)[O-] (stereo not shown) [Example 113, 1^2-nitro-4^4-((tetrahydro-2H-pyran-3-yl)oxy)-6-oxa-3,11-diaza-2(4,2)-pyrimidina-1(1,4),4(1,3)-dibenzena-cyclododecaphan-12-one]
1000 to 10000 nM | 11 to 100 nM | < 10 nM | 101 to 1000 nM | Nc1cc2ccc1-c1ccnc(n1)Nc1ccc(OC3CCCOC3)c(c1)COCCCCNC2=O (stereo not shown) [Example 114, 1^2-amino-4^4-((tetrahydro-2H-pyran-3-yl)oxy)-6-oxa-3,11-diaza-2(4,2)-pyrimidina-1(1,4),4(1,3)-di-benzenacyclododecaphan-12-one]

Structure (SMILES) | IC50 [1] | IC50 [2] | IC50 [3] | IC50 [4]
CC(C)COc1ccc2cc1COCCCCNC(=O)c1ccc(c([N+](=O)[O-])c1)-c1ccnc(n1)N2 [Example 115, 4^4-isobutoxy-1^2-nitro-6-oxa-3,11-diaza-2(4,2)-pyrimidina-1(1,4),4(1,3)-dibenzenacyclododecaphan-12-one] | > 10000 nM | 1000 to 10000 nM | 101 to 1000 nM | 1000 to 10000 nM
CC(C)COc1ccc2cc1COCCCCNC(=O)c1ccc(c(N)c1)-c1ccnc(n1)N2 [Example 116, 1^2-amino-4^4-isobutoxy-6-oxa-3,11-diaza-2(4,2)-pyrimidina-1(1,4),4(1,3)-dibenzenacyclododecaphan-12-one] | 1000 to 10000 nM | 101 to 1000 nM | < 10 nM | 101 to 1000 nM
